Key:
[1] = biological target: T1, GST tagged LXRalpha LBD (ligand binding domain) (Homo sapiens, UniProt Q13133); experiment: LanthaScreen TR-FRET Liver X Receptor Coactivator Assay, LXR alpha-LBD (co-activator recruitment; IP and % Emax relative to T0901317); format: biochemical; settings: for LXR alpha IP (nM) / EC50: Inflection Point of co-activator recruitment, LXR alpha-LBD, TR-FRET; for Emax: efficacy at max dose in relation to reference T0901317, LXR alpha-LBD, read-out: LXR alpha actiivty at max dose (%)
T1 construct: purchased Invitrogen pv4655
T1 sequence (Q13133 209-447 limits assumed): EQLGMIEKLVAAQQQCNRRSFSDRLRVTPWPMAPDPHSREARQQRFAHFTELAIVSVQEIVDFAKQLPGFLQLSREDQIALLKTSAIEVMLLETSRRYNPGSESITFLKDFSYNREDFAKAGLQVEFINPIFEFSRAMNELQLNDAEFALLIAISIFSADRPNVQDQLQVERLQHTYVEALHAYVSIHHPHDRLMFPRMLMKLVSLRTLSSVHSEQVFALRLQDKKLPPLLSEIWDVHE
In short: (§1)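 Readout is time-resolved FRET between a terbium anti-GST antibody bound to the tagged LBD and a fluorescein-labelled coactivator peptide recruited on ligand binding. Samples are incubated at room temperature before reading, and efficacy is expressed against T0901317.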

[2] = biological target: T2, GST tagged LXRbeta LBD (ligand binding domain) (Homo sapiens, UniProt P55055); experiment: LanthaScreen TR-FRET Liver X Receptor Coactivator Assay, LXR beta-LBD (co-activator recruitment; IP and % Emax relative to T0901317); format: biochemical; settings: for EC50: Inflection Point of co-activator recruitment, LXR beta-LBD, TR-FRET; for Emax: efficacy at max dose in relation to reference T0901317, LXR beta-LBD, read-out: LXR beta actiivty at max dose (%)
T2 construct: purchased Invitrogen pv4658.pps
T2 sequence (P55055 222-460 limits assumed): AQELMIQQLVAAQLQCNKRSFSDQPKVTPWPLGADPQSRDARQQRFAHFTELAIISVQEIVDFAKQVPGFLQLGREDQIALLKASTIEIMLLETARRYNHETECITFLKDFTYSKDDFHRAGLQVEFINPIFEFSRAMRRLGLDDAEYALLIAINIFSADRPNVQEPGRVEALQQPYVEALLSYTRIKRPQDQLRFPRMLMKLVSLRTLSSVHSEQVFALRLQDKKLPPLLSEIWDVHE
In short: as §1

Compound | LXR alpha IP (nM) [1] | Emax [1] [%] | EC50 [2] [nM] | Emax [2] [%] | EC50 [1] [nM]
CN(C)C(=O)c1ccc(N2CCC3(CC2)CC3CCCNC(=O)[C@](O)(c2ccccc2)C(F)(F)F)cc1Cl (stereo partly drawn) [Example 7-35, 2-chloro-N,N-dimethyl-4-(1-(3-((R)-3,3,3-trifluoro-2-hydroxy-2-phenylpropanamido)propyl)-6-azaspiro[2.5]octan-6-yl)benzamide] | No IP | 0 | 435 | 46 | 
CN(C)C(=O)c1ccc(N2CCC3(CC2)CC3CCCNC(=O)C(C)(C)c2ccccc2)cc1Cl (centres unmarked) [Example 7-36, 2-chloro-N,N-dimethyl-4-(1-(3-(2-methyl-2-phenylpropanamido)propyl)-6-azaspiro[2.5]octan-6-yl)benzamide] | No IP | 0 | 525 | 57 | 
COc1cccc([C@@](O)(C(=O)NC2(CCC3CCN(c4ccc(C(=O)N(C)C)c(Cl)n4)CC3)CC2)C(F)(F)F)c1 [Example 8-1, (R)-2-chloro-N,N-dimethyl-6-(4-(2-(1-(3,3,3-trifluoro-2-hydroxy-2-(3-methoxyphenyl)propanamido)cyclopropyl)ethyl)piperidin-1-yl)nicotinamide] | No IP | 16 | 201 | 82 | 
COc1cccc([C@@](O)(C(=O)N(C)CCCC2(C)CCN(c3ccc(C(=O)N(C)C)c(Cl)n3)CC2)C(F)(F)F)c1 [Example 9-1, (R)-2-chloro-N,N-dimethyl-6-(4-methyl-4-(3-(3,3,3-trifluoro-2-hydroxy-2-(3-methoxyphenyl)-N-methylpropanamido)propyl)piperidin-1-yl)nicotinamide] | No IP | 0 | 16 | 37 | 
CN(C)C(=O)c1ccc(N2CCC(C)(CCCN(C)C(=O)[C@](O)(c3ccccc3)C(F)(F)F)CC2)nc1Cl [Example 9-2, (R)-2-chloro-N,N-dimethyl-6-(4-methyl-4-(3-(3,3,3-trifluroo-2-hydroxy-N-methyl-2-phenylpropanamido)propyl)piper-idin-1-yl)nicotinamide] |  | 21 | 18 | 47 | 441
CN(C)C(=O)c1ccc(N2CCC(C)(CCCN(C)C(=O)[C@]3(c4ccccc4)CCCO3)CC2)nc1Cl [Example 9-3, (R)-2-chloro-N,N-dimethyl-6-(4-methyl-4-(3-(N-methyl-2-phenyltetrahydrofuran-2-carboxamido)propyl)piperidin-1-yl)nicotinamide] |  | 31 | 14 | 94 | 198
CN(C)C(=O)c1ccc(N2CCC(C)(CCCN(C)C(=O)[C@@]3(c4ccccc4)CCCO3)CC2)nc1Cl [Example 9-4, (S)-2-chloro-N,N-dimethyl-6-(4-methyl-4-(3-(N-methyl-2-phenyltetrahydrofuran-2-carboxamido)propyl)piperidin-1-yl)nicotinamide] | No IP | 14 | 63 | 67 | 
CN(C)C(=O)c1ccc(N2CCC(C)(CCCN(C)C(=O)[C@](O)(c3cccc(OC(F)(F)F)c3)C(F)(F)F)CC2)nc1Cl [Example 9-5, (R)-2-chloro-N,N-dimethyl-6-(4-methyl-4-(3-(3,3,3-trifluoro-2-hydroxy-N-methyl-2-(3-(trifluoromethoxy)phenyl)pro-panamido)propyl)piperidin-1-yl)nicotinamide] | No IP | 0 | 43 | 38 | 
COc1cccc([C@@](O)(C(=O)N(C)CCCC2(C)CCN(c3ccc(C(=O)N(C)C)c(Cl)c3)CC2)C(F)(F)F)c1 [Example 9-6, (R)-2-chloro-N,N-dimethyl-4-(4-methyl-4-(3-(3,3,3-trifluoro-2-hydroxy-2-(3-methoxyphenyl)-N-methylpropanamido)propyl)piper-idin-1-yl)benzamide] | No IP | 0 | 136 | 20 | 

The next lines start with the values.

LXR alpha IP (nM) [1] | Emax [1] [%] | EC50 [2] [nM] | Emax [2] [%] | EC50 [1] [nM] | Compound
 | 19 | 78 | 42 | 921 | CN(C)C(=O)c1ccc(N2CCC(C)(CCCN(C)C(=O)[C@](O)(c3ccccc3)C(F)(F)F)CC2)cc1Cl [Example 9-7, (R)-2-chloro-N,N-dimethyl-4-(4-methyl-4-(3-(3,3,3-trifluoro-2-hydroxy-N-methyl-2-phenylpropanamido)propyl)piper-idin-1-yl)benzamide]
No IP | 0 | 1350 | 65 |  | COc1cccc([C@@](O)(C(=O)Nc2ccc(C3CCN(c4ccc(C(=O)N(C)C)c(Cl)n4)CC3)cc2)C(F)(F)F)c1 [Example 10-1, (R)-2-chloro-N,N-dimethyl-6-(4-(4-(3,3,3-trifluoro-2-hydroxy-2-(3-methoxyphenyl)propanamido)phenyl)piperidin-1-yl)nicotinamide]
No IP | 0 | 3730 | 40 |  | CNC(=O)c1ccc(N2CCC(c3ccc(NC(=O)[C@](O)(c4cccc(OC)c4)C(F)(F)F)cc3)CC2)cc1Cl [Example 10-2, (R)-2-chloro-N-methyl-4-(4-(4-(3,3,3-trifluoro-2-hydroxy-2-(3-methoxyphenyl)propanamido)phenyl)piperidin-1-yl)benzamide]
No IP | 18 | 1330 | 67 |  | COc1cccc([C@@](O)(C(=O)Nc2ccc(C3CCN(c4ccc(C(=O)N(C)C)c(Cl)c4)CC3)cc2)C(F)(F)F)c1 [Example 10-3, (R)-2-chloro-N,N-dimethyl-4-(4-(4-(3,3,3-trifluoro-2-hydroxy-2-(3-methoxyphenyl)propanamido)phenyl)piperidin-1-yl)benzamide]
No IP | 0 | 649 | 49 |  | COc1cccc([C@@](O)(C(=O)Nc2cccc(C3CCN(c4ccc(C(=O)N(C)C)c(Cl)n4)CC3)c2)C(F)(F)F)c1 [Example 10-4, (R)-2-chloro-N,N-dimethyl-6-(4-(3-(3,3,3-trifluoro-2-hydroxy-2-(3-methoxyphenyl)propanamido)phenyl)piperidin-1-yl)nicotinamide]
 | 28 | 273 | 118 | 2390 | CN(C)C(=O)c1ccc(N2CCC(CC3CC(NC(=O)[C@](O)(c4ccccc4)C(F)(F)F)C3)CC2)nc1Cl (stereo partly drawn) [Example 11-2, (R)-2-chloro-N,N-dimethyl-6-(4-((3-(3,3,3-trifluoro-2-hydroxy-2-phenylpropanamido)cyclobutyl)methyl)piperidin-1-yl)nicotinamide]
 | 22 | 508 | 93 | 6010 | CNC(=O)c1ccc(N2CCC(CC3CC(NC(=O)[C@](O)(c4ccccc4)C(F)(F)F)C3)CC2)cc1Cl (stereo partly drawn) [Example 11-3, (R)-2-chloro-N-methyl-4-(4-((3-(3,3,3-trifluoro-2-hydroxy-2-phenylpropanamido)cyclobutyl)methyl)piperidin-1-yl)benzamide]
No IP | 14 | 270 | 85 |  | CN(C)C(=O)c1ccc(N2CCC(CC3CC(NC(=O)[C@](O)(c4ccccc4)C(F)(F)F)C3)CC2)cc1Cl (stereo partly drawn) [Example 11-4, (R)-2-chloro-N,N-dimethyl-4-(4-((3-(3,3,3-trifluoro-2-hydroxy-2-phenylpropanamido)cyclobutyl)methyl)piperidin-1-yl)benzamide]
No IP | 7 | 653 | 53 |  | CNC(=O)c1ccc(N2CCC(CC3CC(NC(=O)[C@](O)(c4cccc(OC)c4)C(F)(F)F)C3)CC2)cc1Cl (stereo partly drawn) [Example 11-5, (R)-2-chloro-N-methyl-4-(4-((3-(3,3,3-trifluoro-2-hydroxy-2-(3-methoxyphenyl)propanamido)cyclobutyl)methyl)piperidin-1-yl)benzamide]
No IP | 3 | 561 | 54 |  | COc1cccc([C@@](O)(C(=O)NC2CC(CC3CCN(c4ccc(C(=O)N(C)C)c(Cl)c4)CC3)C2)C(F)(F)F)c1 (stereo partly drawn) [Example 11-6, (R)-2-chloro-N,N-dimethyl-4-(4-((3-(3,3,3-trifluoro-2-hydroxy-2-(3-methoxyphenyl)propanamido)cyclobutyl)methyl)piperidin-1-yl)benzamide]
No IP | 12 | 266 | 44 |  | CN(C)C(=O)c1ccc(N2CCC(F)(CCCN(C)C(=O)[C@](O)(c3ccccc3)C(F)(F)F)CC2)cc1Cl [Example 12-1, (R)-2-chloro-4-(4-fluoro-4-(3-(3,3,3-trifluoro-2-hydroxy-N-methyl-2-phenylpropanamido)propyl)piperidin-1-yl)-N,N-dimethylbenzamide]
